Laboratory results: patent publication US11419852B2, “Beta-lactam compounds or salts thereof for use in long-acting prevention or treatment of a glucose metabolism disorder” (GLYCOLYSIS BIOMED CO., LTD., priority 2019, dated 2022)
Marks after values point to notes of the source that are not given here.

Legend:
Type in all cases: in vivo
[1] = Body weight of mice recorded weekly
Method: (§1) Four to five weeks old db/db mice (BKS.Cg-Dock7^m+/+Lepr^db/JNarl) and m/m mice (BKS.Cg-Dock7^m+/Dock7^m+) were obtained from National Laboratory Animal Center ([…], Taiwan). […] PMI Nutrition International, Brentwood, Mo.) and water ad libitum. […] The mouse body weight (bw) and the amounts of water and food intake were recorded weekly for the entire study period.

[2] = Food and water intake of mice; conditions: Ex 3: db/db mice, daily dosing 3 weeks at doses of Table 10
Method: as §1

db/db mice [3] = assay: Fasting plasma glucose (FPG) measurement; conditions: Ex 2 G3 db/db, Met oral 0.3 mg/g bw/day, dosing 6 weeks
Method: Four to five weeks old db/db mice (BKS.Cg-Dock7^m+/+Lepr^db/JNarl) and m/m mice (BKS.Cg-Dock7^m+/Dock7^m+) were obtained from National Laboratory Animal Center (Nangang, Taipei, Taiwan). These animals were maintained in a facility with a 12-h dark-light cycle at 24±2° C. and 65±5% humidity and were provided food (No. 5001; PMI Nutrition International, Brentwood, Mo.) and water ad libitum. For experiments, the average body weight of m/m mice was approximately 20 g, and that of db/db mice was approximately 30 g.
For each mouse, blood was sampled from the tail vein and measured for FPG levels using a blood glucose meter (OneTouch UltraEasy, Johnson & Johnson, USA) at a predestined time point.

db/db mice [4] = assay: Oral glucose tolerance test (OGTT); parameters: OGTT AUC: unit not given here
Method: Four to five weeks old db/db mice (BKS.Cg-Dock7^m+/+Lepr^db/JNarl) and m/m mice (BKS.Cg-Dock7^m+/Dock7^m+) were obtained from National Laboratory Animal Center ([…], Taiwan). […] PMI Nutrition International, Brentwood, Mo.) and water ad libitum. […] Blood was sampled from the tail vein, and FPG levels were measured and recorded as the basic blood glucose levels. […] The total area under the curve (AUC) in OGTT was plotted and calculated by the Area Under Coordinates Program (StatsToDo Server, Department of Obstetrics and Gynecology, Chinese University of Hong Kong).

db/db mice [5] = assay: Plasma biochemical parameters (AST, ALT, BUN, Cr, HbA1c); conditions: Ex 3: db/db mice, daily dosing 3 weeks at doses of Table 10; week 9
Method: Inflammatory markers such as serum aspartate aminotransferase (AST), alanine aminotransferase (ALT), blood urea nitrogen (BUN), creatinine (Cr), and hemoglobin Alc (HbAlc) were measured using a BMC-Hitachi 717 chemistry auto analyzer.

[6] = Ex 2 G3 db/db, Met oral 0.3 mg/g bw/day, dosing 6 weeks, week 6
[7] = Ex 2 G3 db/db, Met oral 0.3 mg/g bw/day, dosing 6 weeks, week 12
[8] = Ex 3: db/db mice, daily dosing 3 weeks at doses of Table 10, Week 6 (stopped for 3 weeks)
[9] = Ex 3: db/db mice, daily dosing 3 weeks at doses of Table 10, Week 9 (stopped for 6 weeks)

Question: Which Body weight ([1]; Ex 2 G3 db/db, Met oral 0.3 mg/g bw/day, dosing 6 weeks, Baseline) does the source give for CN(C)C(=N)N=C(N)N [Met, metformin] here?
Answer: The Body weight was 31.17 ± 0.47^b.

Question: And the Body weight ([1]; Ex 2 G3 db/db, Met oral 0.3 mg/g bw/day, dosing 6 weeks, week 1)?
Answer: The Body weight was 30.81 ± 0.48^b.

Question: And the Body weight ([1]; Ex 2 G3 db/db, Met oral 0.3 mg/g bw/day, dosing 6 weeks, week 2)?
Answer: The Body weight was 32.61 ± 0.46^bc.

Question: What about the Body weight ([1]; Ex 2 G3 db/db, Met oral 0.3 mg/g bw/day, dosing 6 weeks, week 3) of the same compound?
Answer: Its Body weight is 35.97 ± 0.57^cd.

Question: What about the Body weight ([1]; Ex 2 G3 db/db, Met oral 0.3 mg/g bw/day, dosing 6 weeks, week 4) of the same compound?
Answer: Its Body weight is 37.47 ± 0.79^c.

Question: And the Body weight ([1]; Ex 2 G3 db/db, Met oral 0.3 mg/g bw/day, dosing 6 weeks, week 5)?
Answer: Its Body weight is 40.15 ± 0.93^c.

Question: What about the Body weight [1, 6] of the same compound?
Answer: The Body weight was 41.82 ± 0.98^d.

Question: What about the Body weight ([1]; Ex 2 G3 db/db, Met oral 0.3 mg/g bw/day, dosing 6 weeks, week 7) of the same compound?
Answer: Its Body weight is 42.38 ± 1.25^d.

Question: And the Body weight ([1]; Ex 2 G3 db/db, Met oral 0.3 mg/g bw/day, dosing 6 weeks, week 8)?
Answer: The Body weight was 43.04 ± 1.54^d.

Question: And the Body weight ([1]; Ex 2 G3 db/db, Met oral 0.3 mg/g bw/day, dosing 6 weeks, week 9)?
Answer: The Body weight was 43.68 ± 1.58^d.

Question: And the Body weight ([1]; Ex 2 G3 db/db, Met oral 0.3 mg/g bw/day, dosing 6 weeks, week 10)?
Answer: Its Body weight is 43.40 ± 1.4^b.

Question: What about the Body weight ([1]; Ex 2 G3 db/db, Met oral 0.3 mg/g bw/day, dosing 6 weeks, week 11) of the same compound?
Answer: The Body weight was 44.15 ± 1.37^b.

Question: What about the Body weight [1, 7] of the same compound?
Answer: Its Body weight is 45.24 ± 1.37^b.

Question: And the Body weight ([1]; Ex 2 G3 db/db, Met oral 0.3 mg/g bw/day, dosing 6 weeks, week 13)?
Answer: Its Body weight is 44.68 ± 1.6^b.

Question: What about the Body weight ([1]; Ex 3: db/db mice, daily dosing 3 weeks at doses of Table 10, Baseline) of the same compound?
Answer: The Body weight was 28.9 ± 1^b.

Question: What about the Body weight ([1]; Ex 3: db/db mice, daily dosing 3 weeks at doses of Table 10, Final) of the same compound?
Answer: The Body weight was 37.0 ± 1^c.

Question: What about the Body weight ([1]; Ex 3: db/db mice, daily dosing 3 weeks at doses of Table 10, Week 3) of the same compound?
Answer: Its Body weight is 35.9 ± 1^d.

Question: What about the Body weight [1, 8] of the same compound?
Answer: The Body weight was 39.5 ± 1^c.

Question: And the Body weight [1, 9]?
Answer: Its Body weight is 39.7 ± 1^c.

Question: What about the Diet intake [2] of the same compound?
Answer: Its Diet intake is 6.2 ± 1^c g/mice/day.

Question: What about the Water intake [2] of the same compound?
Answer: The Water intake was 12.1 ± 1^d mL/mice/day.

Question: And the “Average FPG level” value (db/db mice [3]; week 0)?
Answer: Its value is 160 ± 21^b.

Question: And the “Average FPG level” value (db/db mice [3]; week 3)?
Answer: The value was 136 ± 13^b.

Question: What about the “Average FPG level” value (db/db mice [3]; week 6) of the same compound?
Answer: The value was 222 ± 30^b.

Question: And the “Average FPG level” value (db/db mice [3]; week 9)?
Answer: Its value is 310 ± 25^d.

Question: And the “Average FPG level” value (db/db mice [3]; week 12)?
Answer: The value was 267 ± 43^cd.

Question: What about the “Average FPG level” value (db/db mice [3]; week 16) of the same compound?
Answer: The value was 215 ± 27^b.

Question: What about the “Average FPG level” value (db/db mice [3]; week 18) of the same compound?
Answer: The value was 346 ± 50^b.

Question: What about the “Oral glucose tolerance (OGT) of db/db mice” value (db/db mice [4]; Ex 2, most time points (ertapenem: weeks 6 and 12)) of the same compound?
Answer: The value was “no significant changes”.

Question: And the Level of OGTT (blood glucose) (db/db mice [4]; Ex 2 G3 db/db, Met oral 0.3 mg/g bw/day, dosing 6 weeks, Week 6, 0 min)?
Answer: The Level of OGTT (blood glucose) was 222 ± 30 mg/dL.

Question: What about the “Level of OGTT (blood glucose)” value (db/db mice [4]; Ex 2 G3 db/db, Met oral 0.3 mg/g bw/day, dosing 6 weeks, Week 6, 15 min) of the same compound?
Answer: The value was 828 ± 33^bc.

Question: And the “Level of OGTT (blood glucose)” value (db/db mice [4]; Ex 2 G3 db/db, Met oral 0.3 mg/g bw/day, dosing 6 weeks, Week 6, 30 min)?
Answer: The value was 832 ± 42^c.

Question: And the “Level of OGTT (blood glucose)” value (db/db mice [4]; Ex 2 G3 db/db, Met oral 0.3 mg/g bw/day, dosing 6 weeks, Week 6, 60 min)?
Answer: Its value is 710 ± 86^cd.

Question: What about the “Level of OGTT (blood glucose)” value (db/db mice [4]; Ex 2 G3 db/db, Met oral 0.3 mg/g bw/day, dosing 6 weeks, Week 6, 120 min) of the same compound?
Answer: Its value is 417 ± 42^cd.

Question: And the “Level of OGTT (blood glucose)” value (db/db mice [4]; Ex 2 G3 db/db, Met oral 0.3 mg/g bw/day, dosing 6 weeks, Week 12, 0 min)?
Answer: The value was 267 ± 43^cd.

Question: And the Level of OGTT (blood glucose) (db/db mice [4]; Ex 2 G3 db/db, Met oral 0.3 mg/g bw/day, dosing 6 weeks, Week 12, 15 min)?
Answer: The Level of OGTT (blood glucose) was 821 ± 47 mg/dL.

Question: What about the “Level of OGTT (blood glucose)” value (db/db mice [4]; Ex 2 G3 db/db, Met oral 0.3 mg/g bw/day, dosing 6 weeks, Week 12, 30 min) of the same compound?
Answer: Its value is 839 ± 40^cd.

Question: And the “Level of OGTT (blood glucose)” value (db/db mice [4]; Ex 2 G3 db/db, Met oral 0.3 mg/g bw/day, dosing 6 weeks, Week 12, 60 min)?
Answer: The value was 741 ± 51^c.

Question: And the “Level of OGTT (blood glucose)” value (db/db mice [4]; Ex 2 G3 db/db, Met oral 0.3 mg/g bw/day, dosing 6 weeks, Week 12, 120 min)?
Answer: Its value is 564 ± 70^c.

Question: And the Level of OGTT (blood glucose) (db/db mice [4]; Ex 2 G3 db/db, Met oral 0.3 mg/g bw/day, dosing 6 weeks, Week 16, 0 min)?
Answer: The Level of OGTT (blood glucose) was 215 ± 27 mg/dL.

Question: And the Level of OGTT (blood glucose) (db/db mice [4]; Ex 2 G3 db/db, Met oral 0.3 mg/g bw/day, dosing 6 weeks, Week 16, 15 min)?
Answer: The Level of OGTT (blood glucose) was 611 ± 24 mg/dL.

Question: What about the Level of OGTT (blood glucose) (db/db mice [4]; Ex 2 G3 db/db, Met oral 0.3 mg/g bw/day, dosing 6 weeks, Week 16, 30 min) of the same compound?
Answer: The Level of OGTT (blood glucose) was 703 ± 15 mg/dL.

Question: What about the Level of OGTT (blood glucose) (db/db mice [4]; Ex 2 G3 db/db, Met oral 0.3 mg/g bw/day, dosing 6 weeks, Week 16, 60 min) of the same compound?
Answer: The Level of OGTT (blood glucose) was 637 ± 27 mg/dL.

Question: And the “Level of OGTT (blood glucose)” value (db/db mice [4]; Ex 2 G3 db/db, Met oral 0.3 mg/g bw/day, dosing 6 weeks, Week 16, 120 min)?
Answer: The value was 444 ± 62^cd.

Question: And the Level of OGTT (blood glucose) (db/db mice [4]; Ex 2 G3 db/db, Met oral 0.3 mg/g bw/day, dosing 6 weeks, Week 18, 0 min)?
Answer: Its Level of OGTT (blood glucose) is 346 ± 58 mg/dL.

Question: What about the Level of OGTT (blood glucose) (db/db mice [4]; Ex 2 G3 db/db, Met oral 0.3 mg/g bw/day, dosing 6 weeks, Week 18, 15 min) of the same compound?
Answer: Its Level of OGTT (blood glucose) is 836 ± 58 mg/dL.

Question: What about the Level of OGTT (blood glucose) (db/db mice [4]; Ex 2 G3 db/db, Met oral 0.3 mg/g bw/day, dosing 6 weeks, Week 18, 30 min) of the same compound?
Answer: Its Level of OGTT (blood glucose) is 885 ± 73 mg/dL.

Question: And the Level of OGTT (blood glucose) (db/db mice [4]; Ex 2 G3 db/db, Met oral 0.3 mg/g bw/day, dosing 6 weeks, Week 18, 60 min)?
Answer: Its Level of OGTT (blood glucose) is 769 ± 55 mg/dL.

Question: What about the “Level of OGTT (blood glucose)” value (db/db mice [4]; Ex 2 G3 db/db, Met oral 0.3 mg/g bw/day, dosing 6 weeks, Week 18, 120 min) of the same compound?
Answer: Its value is 589 ± 67^bc.

Question: What about the “OGTT AUC” value (db/db mice [4]; [6]) of the same compound?
Answer: Its value is 1288 ± 93^c.

Question: And the “OGTT AUC” value (db/db mice [4]; [7])?
Answer: The value was 1391 ± 94^cd.

Question: What about the “OGTT AUC” value (db/db mice [4]; Ex 2 G3 db/db, Met oral 0.3 mg/g bw/day, dosing 6 weeks, week 16) of the same compound?
Answer: Its value is 1143 ± 55^c.

Question: What about the “OGTT AUC” value (db/db mice [4]; Ex 2 G3 db/db, Met oral 0.3 mg/g bw/day, dosing 6 weeks, week 18) of the same compound?
Answer: Its value is 1456 ± 85^b.

Question: What about the “OGTT AUC” value (db/db mice [4]; [8]) of the same compound?
Answer: The value was 1603 ± 46^c.

Question: And the “OGTT AUC” value (db/db mice [4]; [9])?
Answer: The value was 1707 ± 43^f.

Question: And the ALT (db/db mice [5])?
Answer: Its ALT is 116 ± 12^d U/L.

Question: What about the AST (db/db mice [5]) of the same compound?
Answer: The AST was 194 ± 17^e U/L.

Question: What about the BUN (db/db mice [5]) of the same compound?
Answer: The BUN was 37 ± 1^b mg/dL.

Question: And the Creatinine (db/db mice [5])?
Answer: Its Creatinine is 0.517 ± 0.01^e mg/dL.

Question: And the HbA1c (db/db mice [5])?
Answer: Its HbA1c is 6.7 ± 0.2^e %.
